Earlier results on one compound are cited in patent US20110086369A1, “FLUORESCENT COMPOUNDS FOR THE DIAGNOSIS OF INFECTIONS, PRODUCTION METHOD, AND APPLICATIONS THEREOF” (priority 2008, published 2011).

The subject of this series is Leishmania. Particulars: in Leishmania.

Take `CCCCCCCCCCCCCCCCOP(=O)([O-])OCC[N+](C)(C)C` [MT, hexadecylphosphocholine]: the intracellular concentration entry is on record as “values in the millimolar rank”.
